# Results taken from PubChem BioAssay AID284 (DTP/NCI, 2004).
# Where “and” joins values, the source holds several entries; their conditions need not be identical. Identical values can stand only once. Inconclusive results and toxic doses are left out.
# System: BDF1 mice, L1210/MTX-resistant leukemia ip, survival T/C
# Test: NCI In Vivo Anticancer Drug Screen. Data for tumor model L1210 Leukemia resistant to Methotrexate; NSC 740 (intraperitoneal) in B6D2F1 (BDF1) mice
# Settings: endpoint: mean survival time, higher = longer survival
# Method: The antitumor activity of compounds was measured in mice bearing transplantable tumors. Survival or tumor size were measured and the results are expressed as the measurement made in the treated group (T) divided by the measurement made in the vehicle treated control group (C). The tumor model used in this assay is L1210 Leukemia resistant to Methotrexate; NSC 740 (intraperitoneal) in B6D2F1 (BDF1) mice
# [1] = dose: 12.5 mg/kg/injection, schedule: Q01DX010 (ip), vehicle: saline
# [2] = dose: 25.0 mg/kg/injection, schedule: Q01DX010 (ip), vehicle: saline
# [3] = dose: 10.0 mg/kg/injection, schedule: Q01DX Z (ip), vehicle: carboxymethylcellulose (CMC)
compound,measurement,setting,value
CS(=O)(=O)OCC(O)C(O)COS(C)(=O)=O (stereo not given),T/C,"dose: 18.8 mg/kg/injection, schedule: Q01DX Z (ip), vehicle: saline",88 % of control
same,T/C,"dose: 37.5 mg/kg/injection, schedule: Q01DX Z (ip), vehicle: saline",90 % of control
same,T/C,"dose: 75.0 mg/kg/injection, schedule: Q01DX Z (ip), vehicle: saline",101 % of control
O=c1cn[nH]c(=O)[nH]1,T/C,"dose: 125.0 mg/kg/injection, schedule: Q01DX010 (ip), vehicle: saline",93 % of control
same,T/C,"dose: 250.0 mg/kg/injection, schedule: Q01DX010 (ip), vehicle: saline",91 % of control and 97 % of control
same,T/C,"dose: 500.0 mg/kg/injection, schedule: Q01DX010 (ip), vehicle: saline",86 % of control and 90 % of control
Clc1ncnc2nc[nH]c12,T/C,"dose: 7.5 mg/kg/injection, schedule: Q01DX010 (ip), vehicle: saline",90 % of control
same,T/C,"dose: 15.0 mg/kg/injection, schedule: Q01DX010 (ip), vehicle: saline",90 % of control and 96 % of control
same,T/C,"dose: 30.0 mg/kg/injection, schedule: Q01DX010 (ip), vehicle: saline",92 % of control and 100 % of control
same,T/C,"dose: 60.0 mg/kg/injection, schedule: Q01DX010 (ip), vehicle: saline",96 % of control
CS(=O)(=O)OCCCCOS(C)(=O)=O,T/C,"dose: 0.38 mg/kg/injection, schedule: Q01DX Z (ip), vehicle: methylcellulose (MC)",88 % of control and 105 % of control
same,T/C,"dose: 0.75 mg/kg/injection, schedule: Q01DX Z (ip), vehicle: methylcellulose (MC)",93 % of control and 97 % of control
same,T/C,"dose: 6.25 mg/kg/injection, schedule: Q01DX010 (ip), vehicle: saline",97 % of control
same,T/C,[1],92 % of control and 93 % of control
same,T/C,"dose: 12.5 mg/kg/injection, schedule: Q01DX Z (ip), vehicle: carboxymethylcellulose (CMC)",106 % of control
same,T/C,[2],91 % of control
same,T/C,"dose: 50.0 mg/kg/injection, schedule: Q01DX010 (ip), vehicle: saline",102 % of control
O=C(Nc1ccc(C2=NCCCN2)cc1)c1ccc(C(=O)Nc2ccc(C3=NCCCN3)cc2)cc1,T/C,"dose: 2.0 mg/kg/injection, schedule: Q01DX010 (ip), vehicle: other",222 % of control and 252 % of control
same,T/C,"dose: 4.0 mg/kg/injection, schedule: Q01DX010 (ip), vehicle: other",124 % of control and 242 % of control
same,T/C,"dose: 5.0 mg/kg/injection, schedule: Q01DX Z (ip), vehicle: carboxymethylcellulose (CMC)",208 % of control
same,T/C,"dose: 7.5 mg/kg/injection, schedule: Q01DX Z (ip), vehicle: carboxymethylcellulose (CMC)",122 % of control
same,T/C,"dose: 8.0 mg/kg/injection, schedule: Q01DX010 (ip), vehicle: other",114 % of control and 93 % of control
same,T/C,[3],114 % of control
same,T/C,"dose: 15.0 mg/kg/injection, schedule: Q01DX Z (ip), vehicle: carboxymethylcellulose (CMC)",100 % of control
same,T/C,"dose: 16.0 mg/kg/injection, schedule: Q01DX010 (ip), vehicle: other",93 % of control
same,T/C,"dose: 20.0 mg/kg/injection, schedule: Q01DX Z (ip), vehicle: carboxymethylcellulose (CMC)",98 % of control
same,T/C,"dose: 25.0 mg/kg/injection, schedule: Q01DX Z (ip), vehicle: carboxymethylcellulose (CMC)",96 % of control
CN(Cc1cnc2nc(N)nc(N)c2n1)c1ccc(C(=O)N[C@@H](CCC(=O)O)C(=O)O)cc1,T/C,"dose: 0.19 mg/kg/injection, schedule: Q01DX010 (ip), vehicle: other",95 % of control
same,T/C,"dose: 0.38 mg/kg/injection, schedule: Q01DX010 (ip), vehicle: other",100 % of control
same,T/C,"dose: 0.75 mg/kg/injection, schedule: Q01DX010 (ip), vehicle: other",99 % of control
same,T/C,"dose: 0.75 mg/kg/injection, schedule: Q01DX Z (ip), vehicle: alkali diluted with saline",120 % of control and 92 % of control
same,T/C,"dose: 0.75 mg/kg/injection, schedule: Q01DX Z (ip), vehicle: saline",95 % of control and 106 % of control
same,T/C,"dose: 1.5 mg/kg/injection, schedule: Q01DX010 (ip), vehicle: other",100 % of control
same,T/C,"dose: 1.5 mg/kg/injection, schedule: Q01DX Z (ip), vehicle: alkali diluted with saline",117 % of control and 92 % of control
same,T/C,"dose: 1.5 mg/kg/injection, schedule: Q01DX Z (ip), vehicle: saline",94 % of control and 100 % of control
same,T/C,"dose: 3.0 mg/kg/injection, schedule: Q01DX Z (ip), vehicle: alkali diluted with saline",97 % of control
same,T/C,"dose: 3.0 mg/kg/injection, schedule: Q01DX Z (ip), vehicle: saline",87 % of control and 99 % of control
same,T/C,"dose: 4.0 mg/kg/injection, schedule: Q01DX Z (ip), vehicle: other",91 % of control and 95 % of control
Cc1cc(N(CCCl)CCCl)ccc1N=Nc1ccccc1C(=O)O,T/C,"dose: 0.37 mg/kg/injection, schedule: Q01DX Z (ip), vehicle: carboxymethylcellulose (CMC)",104 % of control
same,T/C,"dose: 0.75 mg/kg/injection, schedule: Q01DX Z (ip), vehicle: carboxymethylcellulose (CMC)",124 % of control
same,T/C,"dose: 3.0 mg/kg/injection, schedule: Q01DX Z (ip), vehicle: carboxymethylcellulose (CMC)",94 % of control
same,T/C,"dose: 4.0 mg/kg/injection, schedule: Q01DX Z (ip), vehicle: carboxymethylcellulose (CMC)",109 % of control
same,T/C,"dose: 5.0 mg/kg/injection, schedule: Q01DX010 (ip), vehicle: saline",123 % of control
same,T/C,"dose: 6.0 mg/kg/injection, schedule: Q01DX Z (ip), vehicle: carboxymethylcellulose (CMC)",124 % of control
same,T/C,"dose: 8.0 mg/kg/injection, schedule: Q01DX Z (ip), vehicle: carboxymethylcellulose (CMC)",104 % of control
same,T/C,"dose: 10.0 mg/kg/injection, schedule: Q01DX010 (ip), vehicle: saline",107 % of control
same,T/C,[3],97 % of control
same,T/C,"dose: 20.0 mg/kg/injection, schedule: Q01DX010 (ip), vehicle: saline",88 % of control
N=[N+]=CC(=O)OCC(N)C(=O)O (stereo not given),T/C,"dose: 1.25 mg/kg/injection, schedule: Q01DX Z (ip), vehicle: saline",116 % of control and 121 % of control
same,T/C,"dose: 2.5 mg/kg/injection, schedule: Q01DX Z (ip), vehicle: saline",112 % of control
same,T/C,"dose: 10.0 mg/kg/injection, schedule: Q01DX Z (ip), vehicle: saline",117 % of control and 104 % of control
same,T/C,"dose: 40.0 mg/kg/injection, schedule: Q01DX Z (ip), vehicle: saline",101 % of control
same,T/C,"dose: 80.0 mg/kg/injection, schedule: Q01DX Z (ip), vehicle: saline",93 % of control
Nc1nc2n[nH]nc2c(=O)[nH]1,T/C,"dose: 25.0 mg/kg/injection, schedule: Q01DX010 (ip), vehicle: alkali diluted with saline",92 % of control
same,T/C,"dose: 25.0 mg/kg/injection, schedule: Q01DX Z (ip), vehicle: water",120 % of control
same,T/C,"dose: 50.0 mg/kg/injection, schedule: Q01DX010 (ip), vehicle: alkali diluted with saline",94 % of control and 99 % of control
same,T/C,"dose: 50.0 mg/kg/injection, schedule: Q01DX Z (ip), vehicle: other",106 % of control
same,T/C,"dose: 50.0 mg/kg/injection, schedule: Q01DX Z (ip), vehicle: water",120 % of control
same,T/C,"dose: 100.0 mg/kg/injection, schedule: Q01DX010 (ip), vehicle: alkali diluted with saline",90 % of control and 91 % of control
same,T/C,"dose: 100.0 mg/kg/injection, schedule: Q01DX Z (ip), vehicle: other",101 % of control
same,T/C,"dose: 200.0 mg/kg/injection, schedule: Q01DX010 (ip), vehicle: alkali diluted with saline",88 % of control and 98 % of control
same,T/C,"dose: 200.0 mg/kg/injection, schedule: Q01DX Z (ip), vehicle: water",107 % of control
same,T/C,"dose: 350.0 mg/kg/injection, schedule: Q01DX Z (ip), vehicle: water",94 % of control
CCC(=O)O[C@H]1CC[C@H]2[C@@H]3CCC4=CC(=O)CC[C@]4(C)[C@H]3CC[C@]12C,T/C,"dose: 125.0 mg/kg/injection, schedule: Q01DX Z (sc), vehicle: steriod suspending solution",100 % of control and 102 % of control
same,T/C,"dose: 250.0 mg/kg/injection, schedule: Q01DX Z (sc), vehicle: steriod suspending solution",102 % of control
same,T/C,"dose: 1000.0 mg/kg/injection, schedule: Q01DX Z (sc), vehicle: steriod suspending solution",86 % of control and 89 % of control
O=C(Nc1ccc(NC2=NCCN2)cc1)c1ccc(C(=O)Nc2ccc(NC3=NCCN3)cc2)cc1,T/C,"dose: 2.0 mg/kg/injection, schedule: Q01DX010 (ip), vehicle: saline",167 % of control and 219 % of control
same,T/C,"dose: 4.0 mg/kg/injection, schedule: Q01DX010 (ip), vehicle: saline",248 % of control and 257 % of control
same,T/C,"dose: 8.0 mg/kg/injection, schedule: Q01DX010 (ip), vehicle: saline",188 % of control and 243 % of control
same,T/C,"dose: 16.0 mg/kg/injection, schedule: Q01DX010 (ip), vehicle: saline",101 % of control and 106 % of control
CC/C(=C(/CC)c1ccc(O)cc1)c1ccc(O)cc1,T/C,[1],94 % of control
same,T/C,"dose: 12.5 mg/kg/injection, schedule: Q01DX010 (sc), vehicle: steriod suspending solution",92 % of control
same,T/C,[2],94 % of control
same,T/C,"dose: 50.0 mg/kg/injection, schedule: Q01DX010 (sc), vehicle: steriod suspending solution",89 % of control
same,T/C,"dose: 100.0 mg/kg/injection, schedule: Q01DX010 (sc), vehicle: steriod suspending solution",86 % of control and 87 % of control
